“Also recorded” adds a separate entry of the source. Like-named read-outs stand apart in the source and are kept apart here.

Assay [1] has as its system ovalbumin challenged mice. The assay is classed as in vivo. Particulars: 24 h after repeated ovalbumin challenge, 10 μg intra-tracheal; for bronchial hyper-responsiveness to methacholine: FIG. 2; for recruitment of eosinophils to the airways (airways inflammation): percentage of eosinophils vs ovalbumin alone, FIG. 1. How it is done: Allergic inflammation in the lung is induced by 2 intraperitoneal injections of 10 μg of ovalbumin (OVA) in 1 mg of alum with 7 days interval between them. Control animals receive alum only. On day 14, all animals are exposed to an aerosol of OVA for 25 minutes, once a day for 3 consecutive days. All measurements are performed 24 h after the last antigen challenge. […]

The test system of assay [2] is ovalbumin challenged mice. Particulars: previously demonstrated, Riffo-Vasquez et al. 2004; cited from earlier work.
Assay [3] relates to ovalbumin challenged mice. Type of assay: in vivo. Particulars: 24 h after repeated ovalbumin challenge; for levels of total IgE circulating in serum: 0.005 μg/mouse, FIG. 13; for levels of IL-5 in BAL fluid: FIG. 12; for recruitment of eosinophils to the airways: Cpn60.1 0.1 and 1 μg, peptide 4 0.005 μg, FIG. 11.
Assay [4] has as its system spleen cells of C57Bl/6 mice. The assay is classed as cell-based, C57BI/6 mice. Particulars: polymixin B, FIG. 8; for IL-12 release compared with Cpn60.1 at lower concentrations: lower concentrations (0.001-0.1 μg/ml).
Assay [5] relates to bone marrow dendritic cells. Description: IL-12 production by bone marrow dendritic cells pulsed with chaperonins. Type of assay: cell-based, Balb/c mice. Particulars: 48 h; Cpn60.1 0.1-30 μg/ml, Cpn10 10 μg/ml; FIG. 5. As for the experimental part: (§1) Bone marrow cells from Balb/c mice were collected and cultured for 6 days in complete Dulbecco's Modified Eagle Medium containing 8 ng/ml of mouse GM-CSF. On day 6 of culture, the cells were collected, re-plated for 1 hour for removal of adherent cells, washed and plated at […] in 6-wells plates for analysis of surface markers expression and transference experiments and at 10^5 cells/well in 96-wells plate for cytokine measurements. In other experiments, cells were incubated at 10^6 cells/well for 24 h with the chaperonins and then another further 24 h with LPS (10 ng/ml).

Assay [6] relates to bone marrow dendritic cells. Description: LPS-induced IL12 production by dendritic cells after chaperonin pre-incubation. Type of assay: cell-based, Balb/c mice. Particulars: pre-incubation 24 hours, then LPS (10 ng/ml) further 24 h; FIG. 6. How it is done:
as §1
Pre-incubation of DC's with Cpn60.1 but not Cpn10 for 24 hours inhibited IL12 production induced by LPS (FIG. 6).

In assay [7] the test system is OVA-sensitized recipient mice. Nature of the assay: Transfer of chaperonin pre-treated dendritic cells to OVA-sensitized recipient mice. Type of assay: in vivo. Particulars: dendritic cells pre-treated in vitro 24 h with 10 μg/ml, given topically to lungs; FIG. 4. As for the experimental part:
as §1
The DC's were pre-treated in vitro for 24 h with Cpn10 (10 μg/ml) and then administrated topically to the lungs of OVA-sensitized recipient mice.

Assay [8] concerns co-culture of dendritic cells and RD11.10 T cells. Nature of the assay: IL4 release in dendritic cell / T cell co-culture. Type of assay: cell-based, mice. Particulars: DC pre-treated 10 μg/ml 24 h; 6 days co-culture, anti-CD3 and anti-CD28 24 hours; FIG. 7. As for the experimental part: as §1
DC pre-treated with Cpn60.1 (10 μg/ml) or Cpn10 (10 μg/ml) for 24 h suppressed the release of IL4 from RD11.10 T cells in a DC/T cell co-culture. After 6 days of culture, cells were stimulated with anti-CD3 and anti-CD28 for further 24 hours and supernatants collected. IL5 and IL10 were not detected in this culture (FIG. 7).

For assay [9], the system named is human peripheral blood monocytes. Description: Human monocyte assay, TNF-alpha secretion (ELISA). The assay is classed as cell-based. Particulars: pre-treatment 1 hour, then LPS (1 ng/ml) 24 hours; FIGS. 18, 20. As for the experimental part:
We have established a human monocyte assay to compare the efficacy of Cpn60.1 and various peptide sequences of this protein. Human monocytes were obtained by density-dependent centrifugation from peripheral venus blood from healthy volunteers. Monocytes were then isolated and purified with cells adjusted to a density of 2×10^6 cells/ml which were incubated for 1 hour 30 minutes. The plates were then washed twice with Hanks solution. 0.9 ml of RPMI medium was then added to each well followed by polymyxin-B (5 μg/ml). 30 minutes later, 0.1 ml of Cpn at 0.0001-1000 ng/ml or peptides were added to the wells. Cells were then incubated at 37° C., 5% CO2 for 1 hour. The medium was removed and cells washed. 0.9 ml of medium was added to each well followed by 0.1 ml of LPS (1 ng/ml) and left to incubate for 24 hours. Supernatant was taken from each well and frozen for Enzyme Linked Immunosorbent Assay (ELISA).

For the molecule “Cpn60.2: M. tuberculosis chaperonin polypeptide chaperonin 60.2”, in assay [1], the “bronchial hyper-responsiveness to methacholine” value was “not” and the “recruitment of eosinophils to the airways (airways inflammation)” value was “not”. Besides, the “lung inflammation in a murine model of asthma” value in assay [2] is “not”.

For “DGSVVVNKVSELPAGHGLNVNTLSYGDLAAD (listed as Mycobacterium tuberculosis) [Peptide 4]”, the “levels of total IgE circulating in serum” value in [3] is reported as “affected total IgE production”; in assay [3] (listed as Cpn60.1-peptide 4), “significantly inhibited”. In addition, the “levels of IL-5 in BAL fluid” value in assay [3] was “not caused by an interference with the production of IL-5”; in assay [3] (listed as Cpn60.1-peptide 4), “not significantly inhibited”. The “recruitment of total cells to the airways” value in assay [3] (intra-nasal, Cpn60.1 1 μg, FIG. 10) is listed as “inhibited”. Besides, the “recruitment of eosinophils to the airways” value in assay [3] (intra-nasal) is recorded as “significant reduction”; in assay [3] (intra-nasal, listed as Cpn60.1-peptide 4), “inhibited”. The “IL-12 release compared with Cpn60.1 at higher concentration” value in assay [4] (higher concentration (0.1-30 μg/ml)) was “reduced effect in comparison to Cpn60.1”. Further, the “IL-12 release compared with Cpn60.1 at lower concentrations” value in [4] is listed as “more effective than Cpn60.1”.

In the case of “LTTETVVVDKPAKAEDHDHHHGHAH (listed as Mycobacterium tuberculosis) [Peptide 6]”, the “IL-12 release compared with Cpn60.1 at lower concentrations” value in assay [4] is given as “less potent effect”.

B1: Cpn10: M. tuberculosis chaperonin polypeptide chaperonin 10 (protein, UniProt P9WPE5 2-100, looked up)
Co-chaperonin GroES: AKVNIKPLEDKILVQANEAETTTASGLVIPDTAKEKPQEGTVVAVGPGRWDEDGEKRIPLDVAEGDTVIYSKYGGTEIKYNGEEYLILSARDVLAVVSK
For B1, the “IL12 production by dendritic cells” value in assay [5] is “induced low levels; also recorded: induced lower levels of IL-12 release in comparison to LPS and Cpn60.1”. The “IL12 production induced by LPS” value in assay [6] was “not”. Besides, in [7], the “eosinophils migration to the lung” value was “significantly inhibited”. Besides, the “levels of IL4 in DC/T cell co-culture” value in [8] is recorded as “suppressed”. In [1], the “bronchial hyper-responsiveness to methacholine” value was “reduced; also recorded: significantly inhibit” and the “recruitment of eosinophils to the airways (airways inflammation)” value is “inhibited; also recorded: significantly inhibit”. Further, the “levels of cytokines in BAL fluid (cytokine release in the lung)” value in assay [1] (FIG. 3) is “significantly inhibit”. Also, the “lung inflammation in a murine model of asthma” value in [2] was “suppressed”. Further, in assay [9], the “LPS-induced TNF-alpha secretion” value is “does not suppress; also recorded: failed to inhibit”.

These data come from US9085632B2, “Biological materials and uses thereof” (PEPTINNOVATE LIMITED, priority 2008, dated 2015).
